Test results taken from patent US20140148477A1, “ANIMAL ECTOPARASITE-CONTROLLING AGENT AND METHOD FOR PREVENTING OR TREATING INFECTION IN ANIMALS CAUSED BY PARASITES BY USING THE CONTROLLING AGENT” (OTSUKA AGRITECHNO CO., LTD., priority 2011, published 2014).

Assay: Dissolution in acetone when preparing the test solution
Type: physicochemical
Conditions: acetone added so that the concentration was 0.5 mg/ml
Experimental: Acetone was added to each of Test Compounds 1 to 17 so that the concentration was 0.5 mg/ml, thereby preparing solutions.

Question: Which solubility in acetone does the source give for `COC(Cn1nc(-c2cc(F)cc(F)c2)cc1O[C@@H]1CCN(c2ccc(C(F)(F)F)cn2)C[C@@H]1C)OC` [Test Compound 15] here?
Answer: not dissolved in acetone
